These results are taken from patent US20100081690A1, “OXAZOLE DERIVATIVES AS POSITIVE ALLOSTERIC MODULATORS OF METABOTROPIC GLUTAMATE RECEPTORS” (ADDEX PHARMA SA, priority 2006, published 2010).

One series concerns the target T1, rat mGluR5 (Rattus norvegicus, UniProt P31424).
T1 construct: expressed in transfected cells
The series can be described thus: mGluR5 assay on HEK-expressing rat mGluR5 (fluorescent cell based Ca2+ mobilization). Conditions: for EC50: HEK-293 cells stably expressing rat mGluR5, no co-addition of glutamate, mean of at least three independent experiments in duplicate, read-out: Ca2+ Flux (mean EC50); for activation of rat mGluR5 receptors: HEK-rat mGluR5 cell line, without co-addition of glutamate or mGluR5 agonist. The method, then:
Positive functional expression of HEK-293 cells stably expressing rat mGluR5 receptor was determined by measuring intracellular Ca^2+ changes using a Fluorometric Imaging Plate Reader (FLIPR, Molecular Devices, Sunnyvale, Calif.) in response to glutamate or selective known mGluR5 agonists and antagonists. Rat mGluR5RT-PCR products in HEK-293 cells were sequenced and found 100% identical to rat mGluR5Genbank reference sequence (NM_017012). HEK-293 cells expressing rmGluR5 were maintained in media containing DMEM, dialyzed Fetal Bovine Serum (10%), Glutamax™ (2 mM), Penicillin (100 units/ml), Streptomycin (100 μg/ml), Geneticin (100 μg/ml) and Hygromycin-B (40 μg/ml) at 37° C./5% CO2.
After one day of incubation, cells were washed with assay buffer containing: 142 mM NaCl, 6 mM KCl, 1 mM […], 1 mM CaCl2, 20 mM HEPES, 1 g/L glucose, 0.125 mM sulfinpyrazone, pH 7.4. After 60 min of loading with 4 uM Fluo-4 (TefLabs, Austin, Tex.), the cells were washed three times with 50 μl of PBS Buffer and resuspended in 45 μl of assay Buffer. The plates were then transferred to a Fluorometric Imaging Plate Reader (FLIPR, Molecular Devices, Sunnyvale, Calif.) for the assessment of intracellular calcium flux. After monitoring the baseline fluorescence for 10 seconds, increasing concentrations of representative compound (from 0.01 to 60 μM) of the present invention diluted in Assay Buffer (15 μl of 4× dilutions) was added to the cell. The final DMSO concentration in the assay was 0.3%. In each experiment, fluorescence was then monitored as a function of time for 3 minutes and the data analyzed using Microsoft Excel and GraphPad Prism. Each data point was also measured two times.
Under these experimental conditions, this HEK-rat mGluR5 cell line is able to directly detect positive allosteric modulators without the need of co-addition of glutamate or mGluR5 agonist.
The concentration-response curves of representative compounds of the present invention were generated using the Prism GraphPad software (Graph Pad Inc, San Diego, USA). The curves were fitted to a four-parameter logistic equation:
(Y=Bottom+(Top-Bottom)/(1+10̂((Log EC50−X)*Hill Slope)
allowing determination of EC50 values.
The Table 1 below represents the mean EC50 obtained from at least three independent experiments of selected molecules performed in duplicate.

Another series has as its target T2, mGluR5 (Rattus norvegicus, UniProt P31424).
T2 construct: positive allosteric modulators of mGluR5 receptors in native preparations; endogenous in cells; host or cells: primary cortical astrocytes from Sprague-Dawley rat embryos (E16-19)
As to conditions: Liu et al (2006), Zhang et al (2005); cited from earlier work.

A value given as a limit tells only on which side of the number the result lay.

T1 sequence (P31424 21-1171 isoform P31424-2 limits assumed): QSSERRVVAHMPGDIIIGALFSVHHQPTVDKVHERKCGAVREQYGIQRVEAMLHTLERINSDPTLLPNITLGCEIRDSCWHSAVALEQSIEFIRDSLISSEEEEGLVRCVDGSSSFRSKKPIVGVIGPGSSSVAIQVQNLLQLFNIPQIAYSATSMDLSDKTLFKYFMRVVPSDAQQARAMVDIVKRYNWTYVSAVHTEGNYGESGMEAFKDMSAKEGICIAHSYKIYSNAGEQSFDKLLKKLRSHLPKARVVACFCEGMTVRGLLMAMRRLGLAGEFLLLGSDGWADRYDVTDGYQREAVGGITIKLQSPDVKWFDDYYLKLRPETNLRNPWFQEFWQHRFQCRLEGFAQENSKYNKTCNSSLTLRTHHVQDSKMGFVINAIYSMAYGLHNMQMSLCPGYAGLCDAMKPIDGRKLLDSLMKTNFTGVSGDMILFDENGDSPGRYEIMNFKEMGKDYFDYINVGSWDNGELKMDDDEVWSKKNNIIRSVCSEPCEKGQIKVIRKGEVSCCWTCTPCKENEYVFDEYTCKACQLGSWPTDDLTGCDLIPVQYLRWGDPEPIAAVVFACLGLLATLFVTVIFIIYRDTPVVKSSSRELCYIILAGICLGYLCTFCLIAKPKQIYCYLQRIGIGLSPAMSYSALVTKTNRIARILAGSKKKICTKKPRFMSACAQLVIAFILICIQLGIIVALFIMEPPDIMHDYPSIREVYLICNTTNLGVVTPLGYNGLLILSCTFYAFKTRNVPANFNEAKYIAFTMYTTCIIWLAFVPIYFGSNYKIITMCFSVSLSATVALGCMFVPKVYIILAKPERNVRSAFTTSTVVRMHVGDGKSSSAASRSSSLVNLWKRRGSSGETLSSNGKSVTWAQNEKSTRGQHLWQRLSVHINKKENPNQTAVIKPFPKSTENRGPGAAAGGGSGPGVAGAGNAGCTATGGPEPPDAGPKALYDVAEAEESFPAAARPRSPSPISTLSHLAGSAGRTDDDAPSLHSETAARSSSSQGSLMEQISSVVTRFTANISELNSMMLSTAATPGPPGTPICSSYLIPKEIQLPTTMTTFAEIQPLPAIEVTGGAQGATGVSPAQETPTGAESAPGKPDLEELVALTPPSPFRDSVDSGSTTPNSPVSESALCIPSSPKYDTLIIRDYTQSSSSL
T2 sequence (P31424 21-1203): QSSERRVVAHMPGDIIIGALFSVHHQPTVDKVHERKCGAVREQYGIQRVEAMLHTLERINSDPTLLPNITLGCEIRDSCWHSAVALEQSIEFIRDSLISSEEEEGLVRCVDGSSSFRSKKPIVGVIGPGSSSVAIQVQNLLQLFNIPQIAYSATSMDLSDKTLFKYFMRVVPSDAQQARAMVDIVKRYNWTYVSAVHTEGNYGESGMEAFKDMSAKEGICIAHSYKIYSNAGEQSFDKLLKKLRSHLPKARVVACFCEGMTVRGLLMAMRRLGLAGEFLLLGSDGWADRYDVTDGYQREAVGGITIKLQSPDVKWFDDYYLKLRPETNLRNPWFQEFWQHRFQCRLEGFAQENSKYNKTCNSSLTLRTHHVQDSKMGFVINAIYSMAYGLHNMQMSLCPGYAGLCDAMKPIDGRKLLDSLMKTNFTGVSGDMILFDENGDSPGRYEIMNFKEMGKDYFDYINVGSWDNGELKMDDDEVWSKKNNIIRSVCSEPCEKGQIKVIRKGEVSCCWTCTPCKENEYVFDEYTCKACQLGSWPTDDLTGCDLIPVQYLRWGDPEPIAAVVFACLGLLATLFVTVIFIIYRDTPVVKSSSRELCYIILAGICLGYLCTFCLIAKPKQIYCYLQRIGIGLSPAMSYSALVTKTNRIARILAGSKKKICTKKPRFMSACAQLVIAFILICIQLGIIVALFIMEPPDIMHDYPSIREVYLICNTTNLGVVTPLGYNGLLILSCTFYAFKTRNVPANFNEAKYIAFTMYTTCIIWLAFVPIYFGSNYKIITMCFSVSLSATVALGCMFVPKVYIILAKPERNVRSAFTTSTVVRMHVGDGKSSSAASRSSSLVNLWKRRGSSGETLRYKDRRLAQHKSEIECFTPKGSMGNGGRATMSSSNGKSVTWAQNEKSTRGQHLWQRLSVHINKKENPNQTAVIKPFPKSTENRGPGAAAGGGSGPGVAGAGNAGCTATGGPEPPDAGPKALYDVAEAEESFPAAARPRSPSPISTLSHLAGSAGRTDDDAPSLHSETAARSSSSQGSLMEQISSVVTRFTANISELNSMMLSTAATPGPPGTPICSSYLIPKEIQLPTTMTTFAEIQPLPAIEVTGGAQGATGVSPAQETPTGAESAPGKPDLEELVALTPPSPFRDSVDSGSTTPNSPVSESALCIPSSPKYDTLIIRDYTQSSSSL

The melting point is the temperature, or range, at which the solid turns liquid. One may read the EC50 as the concentration giving half of the maximal effect. In turn, `O=C(c1ccc(F)nc1)N1CCC[C@H](c2nc(-c3cc(F)c[nH]3)co2)C1` [Example 2, (6-Fluoro-pyridin-3-yl)-{(S)-3-[4-(4-fluoro-1H-pyrrol-2-yl)-oxazol-2-yl]-piperidin-1-yl}-methanone] displayed a melting point of 123 °C. On rat mGluR5, the EC50 was less than 1 µM.

For the compound `O=C(c1ccncc1F)N1CCC[C@H](c2nc(-c3ccc(F)cc3)co2)C1` [Example 6, (3-Fluoro-pyridin-4-yl)-{(S)-3-[4-(4-fluoro-phenyl)-oxazol-2-yl]-piperidin-1-yl}-methanone], the EC50 at rat mGluR5 is less than 1 µM.

Take `N#Cc1cccc(C(=O)Nc2cc(-c3ccccc3)nn2-c2ccccc2)c1` [CDPPB, reference compound]: the “activation of rat mGluR5 receptors” value on rat mGluR5 is “activating”. Also, the “activity in rat cortical astrocytes culture in the absence of added glutamate” value (from here on “activity”) on mGluR5 was “inactive”.

In the case of `O=C(c1ccc(F)c(F)c1)N1CCC[C@H](c2nc(-c3ccccn3)co2)C1` [Example 9, (S)-(3,4-Difluoro-phenyl)(3-(4-(pyridin-2-yl)-oxazol-2-yl)-piperidin-1-yl)-methanone], the concentration giving a half-maximal response (EC50) on rat mGluR5 is less than 1 µM.

As to `Cc1oncc1C(=O)N1CCC[C@H](c2nc(-c3ccc(F)cc3)co2)C1` [Example 7, (S)-(3-(4-(4-Fluoro-phenyl)-oxazol-2-yl)-piperidin-1-yl)(5-methyl-isoxazol-4-yl)-methanone], the EC50 on rat mGluR5 was less than 1 µM.

Turning to `O=C(Nc1ccc(Cl)cc1CN1C(=O)c2ccccc2C1=O)c1ccccc1O` [CPPHA, reference compound], at rat mGluR5, the “activation of rat mGluR5 receptors” value is on record as “activating”. In addition, the “activity” value on mGluR5 was “inactive”.

Turning to `O=C(c1ccc(F)cc1)N1CCC[C@H](c2nc(-c3ccc(F)cc3)co2)C1` [Example 3, (4-Fluoro-phenyl)-{(S)-3-[4-(4-fluorophenyl)-oxazol-2-yl]-piperidin-1-yl}-methanone], the EC50 at rat mGluR5 was less than 1 µM.

Regarding `O=C(c1ccnc(F)c1)N1CCC[C@H](c2nc(-c3ccc(F)cc3)co2)C1` [Example 5, (2-Fluoro-pyridin-4-yl)-{(S)-3-[4-(4-fluoro-phenyl)-oxazol-2-yl]-piperidin-1-yl}-methanone], the EC50 on rat mGluR5 is less than 1 µM.

For the compound `O=C(c1ccc(F)cc1)N1CCC[C@H](c2nc(-c3ccc(F)cc3F)co2)C1` [Example 14, (S)-(3-(4-(2,4-Difluoro-phenyl)-oxazol-2-yl)-piperidin-1-yl)(4-fluoro-phenyl)-methanone], the EC50 at rat mGluR5 is less than 1 µM.

`Fc1cccc(/C=N/N=C/c2cccc(F)c2)c1` [DFB, reference compound]: at rat mGluR5, the “activation of rat mGluR5 receptors” value is “activating”. Moreover, on mGluR5, the “activity” value was “inactive”.

`O=C(c1ccc(F)cc1)N1CCC[C@H](c2nc(-c3ccc(F)cn3)co2)C1` [Example 10, (S)-(4-Fluoro-phenyl)(3-(4-(5-fluoro-pyridin-2-yl)-oxazol-2-yl)-piperidin-1-yl)-methanone]: the EC50 at rat mGluR5 is less than 1 µM.

As to `O=C(c1ccnc(F)c1)N1CCC[C@H](c2nc(-c3ccc(F)cc3F)co2)C1` [Example 16, (S)-(3-(4-(2,4-Difluoro-phenyl)-oxazol-2-yl)-piperidin-1-yl)(2-fluoro-pyridin-4-yl)-methanone], at rat mGluR5, the concentration for a half-maximal effect (EC50) is less than 1 µM.

As to `O=C(c1ccc(F)nc1)N1CCC[C@H](c2nc(-c3ccc(F)cc3)co2)C1` [Example 4, (6-Fluoro-pyridin-3-yl)-{(S)-3-[4-(4-fluoro-phenyl)-oxazol-2-yl]-piperidin-1-yl}-methanone], at rat mGluR5, the EC50 was less than 1 µM.

On to `O=C(c1ccc(F)nc1)N1CCC[C@H](c2nc(-c3ccc(F)cc3F)co2)C1` [Example 15, (S)-(3-(4-(2,4-Difluoro-phenyl)-oxazol-2-yl)-piperidin-1-yl)(6-fluoro-pyridin-3-yl)-methanone], for which, at rat mGluR5, the EC50 fell in the range of 1 to 10 µM.

Turning to `O=C(c1ccc(F)cc1)N1CCC[C@H](c2nc(-c3ccccc3F)co2)C1` [Example 11, (S)-(4-Fluoro-phenyl)(3-(4-(2-fluoro-phenyl)-oxazol-2-yl)-piperidin-1-yl)-methanone], at rat mGluR5, the EC50 is less than 1 µM.

For `O=C(c1ccc(F)cc1)N1CCC[C@H](c2nc(-c3ccccn3)co2)C1` [Example 8, (S)-(4-Fluoro-phenyl)(3-(4-(pyridin-2-yl)-oxazol-2-yl)-piperidin-1-yl)-methanone], the EC50 on rat mGluR5 is less than 1 µM.

Consider `O=C(c1ccc(F)nc1)N1CCC[C@H](c2nc(-c3ccccc3F)co2)C1` [Example 12, (S)-(3-(4-(2-Fluoro-phenyl)-oxazol-2-yl)-piperidin-1-yl)(6-fluoro-pyridin-3-yl)-methanone], for which the EC50 on rat mGluR5 is less than 1 µM.

For the compound `O=C(c1ccnc(F)c1)N1CCC[C@H](c2nc(-c3ccccc3F)co2)C1` [Example 13, (S)-(3-(4-(2-Fluoro-phenyl)-oxazol-2-yl)-piperidin-1-yl)(2-fluoro-pyridin-4-yl)-methanone], on rat mGluR5, the EC50 was less than 1 µM.
